# Data reported in ChEMBL document CHEMBL4007445, “Design, synthesis, and biological evaluation of imidazo[1,2-b]pyridazine derivatives as mTOR inhibitors” (Eur J Med Chem, 2017).
# What was measured:
# A549 [1] = assay: Growth inhibition of human A549 cells at 20 uM after 72 hrs by SRB assay relative to control; assay type: functional; conditions: A549, 72 h, read-out: GI
# MCF7 [2] = assay: Growth inhibition of human MCF7 cells at 20 uM after 72 hrs by SRB assay relative to control; assay type: functional; conditions: MCF7, 72 h, read-out: GI
# [3] = Growth inhibition of human U87 cells at 20 uM after 72 hrs by SRB assay relative to control; assay type: functional, U-87MG ATCC; conditions: U-87 MG, read-out: GI
# A-375 [4] = assay: Growth inhibition of human A375 cells at 20 uM after 72 hrs by SRB assay relative to control; assay type: functional; conditions: A-375, 72 h, read-out: GI
# HeLa = assay: Growth inhibition of human HeLa cells at 20 uM after 72 hrs by SRB assay relative to control; assay type: functional; conditions: read-out: GI
# A549 [5] = assay: Antiproliferative activity against human A549 cells after 72 hrs by SRB assay; assay type: functional, cell-based; conditions: A549, 72 h
# A-375 [6] = assay: Antiproliferative activity against human A375 cells after 72 hrs by SRB assay; assay type: functional, cell-based; conditions: A-375, 72 h
# MCF7 [7] = assay: Antiproliferative activity against human MCF7 cells after 72 hrs by SRB assay; assay type: functional, cell-based; conditions: MCF7, 72 h
# [8] = Antiproliferative activity against human U87 cells after 72 hrs by SRB assay; assay type: functional, cell-based, U-87MG ATCC; conditions: U-87 MG
# NCI-H460 = assay: Antiproliferative activity against human NCI-H460 cells after 72 hrs by SRB assay; assay type: functional, cell-based; conditions: NCI-H460, 72 h
# HEK293 = assay: Antiproliferative activity against HEK293 cells after 72 hrs by SRB assay; assay type: cell-based; conditions: Homo sapiens, HEK293, 72 h
IC50 (A549 [5]),IC50 (A-375 [6]),IC50 (MCF7 [7]),IC50 (NCI-H460),Structure (SMILES),inhibition of growth at 20 µM (A549 [1]),inhibition of growth at 20 µM (MCF7 [2]),inhibition of growth at 20 µM [3],inhibition of growth at 20 µM (A-375 [4]),inhibition of growth at 20 µM (HeLa),IC50 [8],IC50 (HEK293)
1.5 µM,2 µM,3.5 µM,2 µM,C[C@H]1COCCN1c1cc(-c2ccc(NC(=O)Nc3ccc(N4CCN(C)CC4)cc3)cc2)nn2ccnc12,,,,,,2.6 µM,8.4 µM
2.3 µM,10.9 µM,6.3 µM,2.2 µM,O=C(Nc1ccncc1)Nc1ccc(-c2cc(N3CC4CCC(C3)O4)c3nccn3n2)cc1,,,,,,11.7 µM,3.4 µM
0.22 µM,15.7 µM,17.7 µM,1 µM,O=C(Nc1ccc(-c2cc(N3CCOCC3)c3nccn3n2)cc1)Nc1cccnc1,,,,,,20 µM,1.4 µM
1.1 µM,4.7 µM,37.9 µM,0.65 µM,O=C(Nc1ccc(-c2cc(N3CC4CCC(C3)O4)c3nccn3n2)cc1)Nc1cccnc1,,,,,,5.8 µM,9 µM
3.3 µM,1.6 µM,4.3 µM,3 µM,CN1CCN(c2ccc(NC(=O)Nc3ccc(-c4cc(N5CCOCC5)c5nccn5n4)cc3)cc2)CC1,,,,,,4.9 µM,7.8 µM
2.7 µM,7.7 µM,5.7 µM,4.2 µM,COc1ccc(NC(=O)Nc2ccc(-c3cc(N4CCOC[C@@H]4C)c4nccn4n3)cc2)cc1,,,,,,7.9 µM,10.5 µM
2.8 µM,7.2 µM,21.9 µM,20.7 µM,O=C(Nc1ccncc1)Nc1ccc(-c2cc(N3CCOCC3)c3nccn3n2)cc1,,,,,,11.1 µM,12.4 µM
3.1 µM,1.8 µM,2.9 µM,2.9 µM,CN1CCN(c2ccc(NC(=O)Nc3ccc(-c4cc(N5CC6CCC(C5)O6)c5nccn5n4)cc3)cc2)CC1,,,,,,4.3 µM,12.1 µM

# Second part, the compound before the results:
Structure (SMILES),IC50 (A549 [5]),IC50 (A-375 [6]),IC50 (MCF7 [7]),IC50 (NCI-H460),inhibition of growth at 20 µM (A549 [1]),inhibition of growth at 20 µM (MCF7 [2]),inhibition of growth at 20 µM [3],inhibition of growth at 20 µM (A-375 [4]),inhibition of growth at 20 µM (HeLa),IC50 [8],IC50 (HEK293)
C[C@H]1COCCN1c1cc(-c2cnc(N)nc2)nn2c(C3CCN(Cc4cccnc4)CC3)cnc12,,,,,44.8%,34.2%,10.8%,14.7%,30.5%,,
C[C@H]1COCCN1c1cc(-c2cnc(N)nc2)nn2c(C3CCN(C(=O)c4cccnc4)CC3)cnc12,,,,,42.1%,32%,11.7%,17.8%,9.4%,,
OCc1cccc(-c2cc(N3CCOCC3)c3ncc(C4CCN(Cc5cccnc5)CC4)n3n2)c1,,,,,30.2%,46.2%,7.8%,12.5%,19.4%,,
COc1ccc(-c2cc(N3CCOC[C@@H]3C)c3ncc(C4CCN(S(C)(=O)=O)CC4)n3n2)cc1CO,,,,,49.6%,45.1%,4%,21.2%,12.7%,,
COC(=O)N1CCC(c2cnc3c(N4CCOC[C@@H]4C)cc(-c4cccc(CO)c4)nn23)CC1,,,,,40.4%,34.6%,-5.2%,16.3%,0.2%,,
COc1ccc(-c2cc(N3CCOC[C@@H]3C)c3ncc(C4CCN(C(=O)c5cccnc5)CC4)n3n2)cc1CO,,,,,46.8%,42.1%,4.3%,19.6%,17.8%,,
COC(=O)N1CCC(c2cnc3c(N4CCOC[C@@H]4C)cc(-c4ccc5[nH]ccc5c4)nn23)CC1,,,,,16%,43.2%,26.4%,33.8%,56%,,
C[C@H]1COCCN1c1cc(-c2cnc(N)nc2)nn2c(C3CCN(S(C)(=O)=O)CC3)cnc12,,,,,39.5%,24.3%,1.5%,17.5%,4.4%,,
